One molecule from US8158656B2, “2-indolinone derivatives as multi-target protein kinase inhibitors and histone deacetylase inhibitors” (Shenzhen Chipscreen Biosciences Ltd., priority 2008, dated 2012) can be followed below.

Test [1] deals with HDAC4/5. Description: MEF2 reporter assay in HeLa cells. In kind it is cell-based, human. The settings on record: relative to CS055 at 3 μM. The method, then:
(§1) HDAC subtype selectivity inhibition assay of tested compounds was carried out by several reporter gene assays experiments. Briefly, HeLa cells were seeded in 96-well plates the day before transfection to give a confluence of 50-80%. Cells were transfected with one of reporter gene plasmid containing a promoter sequence or response element upstream of a luciferase gene construct using FuGene6 transfection reagent according to the manufacturer's instruction (Roche). The promoters or response elements including p21-promoter, gdf11-promoter, MEF-binding element (MEF2), Nur77-promoter were fused upstream to the luciferase gene reporter construct. For normalizing the transfection efficiency, a GFP expression plasmid was cotransfected. Cells were allowed to express protein for 24 hours followed by addition of individual compounds or the vehicle (DMSO). 24 hours later the cells were harvested, and the luciferase assay and GFP assay were performed using corresponding assay kits according to the manufacturer's instructions (Promega).

The target of test [2] is T1, c-Kit (Homo sapiens, UniProt P10721).
T1 construct: purchased Cell Signaling
Kind of test: c-KIT kinase ELISA bioassay. The test is classed as biochemical. As to conditions: ELISA kinase assay, 20 μM ATP. The method, then: This assay is used to measure in vitro kinase activity of c-KIT in an ELISA assay.
• 1. Streptavidin coated, 96-well, white plate • 2. Phospho-Tyrosine Monoclonal Antibody (P-Tyr-100) (Cell Signaling) • 3. HRP-labeled anti-mouse IgG (Upstate) • 4. HTScan™ Tyrosine Kinase Buffer (4×) • 5. DTT (1000×. 1.25 M) • 6. ATP (10 mM) • 7. KDR (Tyr996) Biotinylated Peptide Substrate (Cell Signaling) • 8. c-KIT Kinase (recombinant, human) (Cell Signaling) • 9. Wash Buffer: 1× PBS, 0.05% Tween-20 (PBS/T) • 10. Bovine Serum Albumin (BSA) • 11. Stop Buffer: 50 mM EDTA pH 8 • 12. Enhanced chemiluminescence (ECL) (Amersham) Procedure for performing the assay in 96-well plate: • 1. Add 10 μl 10 mM ATP to 1.25 ml 6 μM substrate peptide. Dilute the mixture with dH20 to 2.5 ml to make 2× ATP/substrate cocktail ([ATP]=40 μM, [substrate]=3 μm). • 2. Immediately transfer enzyme from −80° C. to ice. Allow enzyme to thaw on ice. • 3. Microcentrifuge briefly at 4° C. to bring liquid to the bottom of the vial. Return immediately to ice. • 4. Add 10 μl of DTT (1.25 M) to 2.5 ml of 4× HTScan™ Tyrosine Kinase Buffer (240 mM HEPES pH 7.5, 20 mM MgCl2, 20 mM MnCl2, 12 μM Na3VO4) to make DTT/Kinase buffer. • 5. Transfer 1.25 ml of DTT/Kinase buffer to enzyme tube to make 4× reaction cocktail ([enzyme]=4 ng/μL in 4× reaction cocktail). • 6. Incubate 12.5 μl of the 4× reaction cocktail with 12.5 μl/well of prediluted compound of interest (usually around 10 μM) for 5 minutes at room temperature. • 7. Add 25 μl of 2× ATP/substrate cocktail to 25 μl/well preincubated reaction cocktail/compound. Final Assay Conditions for a 50 μl Reaction: • 60 mM HEPES pH 7.5 • 5 mM MgCl2 • 5 mM MnCl2 • 3 μM Na3VO4 • 1.25 mM DTT • 20 μM ATP • 1.5 μM peptide • 100 ng c-KIT Kinase • 8. Incubate reaction plate at room temperature for 30 minutes. • 9. Add 50 μl/well Stop Buffer (50 mM EDTA, pH 8) to stop the reaction. • 10. Transfer 25 μl of each reaction and 75 μl dH2O/well to a 96-well streptavidincoated plate and incubate at room temperature for 60 minutes. • 11. Wash three times with 200 μl/well PBS/T • 12. Dilute primary antibody, Phospho-Tyrosine Monoclonal Antibody (P-Tyr-100), 1:1000 in PBS/T with 1% BSA. Add 100 μl/well of primary antibody. • 13. Incubate at room temperature for 60 minutes. • 14. Wash three times with 200 μl/well PBS/T • 15. Dilute HRP labeled anti-mouse IgG 1:500 in PBS/T with 1% BSA. Add 100 μl/well diluted antibody. • 16. Incubate at room temperature for 30 minutes. • 17. Wash five times with 200 μl/well PBS/T. • 18. Add 100 μl/well ECL Solution. • 19. Detect luminescence with appropriate Plate Reader. Flt3 Bioassay

In test [3] the test system is Mo7e cells (SCF dependent). Description: c-Kit ligand (SCF) dependent cell proliferation. The settings on record: SCF 50 ng/ml, 72 hours, MTS. In kind it is cell-based. The method, then: SCF dependent cell proliferation:
Mo7e cells (SCF dependent) were plated into 96-well plates at 15000 per well and incubated in 1640 medium with 10% FBS and SCF (50 ng/ml) for 24 hours. Compounds were added and incubated for 72 hours at 37° C. in CO2 incubator. The effects on proliferation were determined by addition of MTS reagent (Promega) according to the instruction, incubation for 2 hours at 37° C. in CO2 incubator, and record the absorbance at 490 nm using an ELISA plate reader.

For test [4], the target named is T2, HDAC3 (Homo sapiens, UniProt O15379).
T2 construct: endogenous in cells; host or cells: HeLa
Kind of test: GDF11 reporter assay in HeLa cells. The test is classed as cell-based. The settings on record: relative to CS055 at 3 μM. The method, then: as §1

Some results are limits rather than exact numbers.

T2 sequence (O15379 whole entry): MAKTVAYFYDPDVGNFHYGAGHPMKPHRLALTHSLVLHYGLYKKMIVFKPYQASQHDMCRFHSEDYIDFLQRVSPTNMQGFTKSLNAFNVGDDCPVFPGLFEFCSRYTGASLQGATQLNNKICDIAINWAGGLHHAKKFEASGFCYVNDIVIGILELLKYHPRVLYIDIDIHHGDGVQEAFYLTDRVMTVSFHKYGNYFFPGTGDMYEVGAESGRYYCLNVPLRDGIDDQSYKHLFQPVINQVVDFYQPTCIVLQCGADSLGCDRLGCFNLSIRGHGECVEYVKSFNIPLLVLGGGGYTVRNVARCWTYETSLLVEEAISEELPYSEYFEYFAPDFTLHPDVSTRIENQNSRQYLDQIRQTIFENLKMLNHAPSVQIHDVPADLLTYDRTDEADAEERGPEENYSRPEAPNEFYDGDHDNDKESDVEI
T2 sequence (Q9Y618 whole entry partner): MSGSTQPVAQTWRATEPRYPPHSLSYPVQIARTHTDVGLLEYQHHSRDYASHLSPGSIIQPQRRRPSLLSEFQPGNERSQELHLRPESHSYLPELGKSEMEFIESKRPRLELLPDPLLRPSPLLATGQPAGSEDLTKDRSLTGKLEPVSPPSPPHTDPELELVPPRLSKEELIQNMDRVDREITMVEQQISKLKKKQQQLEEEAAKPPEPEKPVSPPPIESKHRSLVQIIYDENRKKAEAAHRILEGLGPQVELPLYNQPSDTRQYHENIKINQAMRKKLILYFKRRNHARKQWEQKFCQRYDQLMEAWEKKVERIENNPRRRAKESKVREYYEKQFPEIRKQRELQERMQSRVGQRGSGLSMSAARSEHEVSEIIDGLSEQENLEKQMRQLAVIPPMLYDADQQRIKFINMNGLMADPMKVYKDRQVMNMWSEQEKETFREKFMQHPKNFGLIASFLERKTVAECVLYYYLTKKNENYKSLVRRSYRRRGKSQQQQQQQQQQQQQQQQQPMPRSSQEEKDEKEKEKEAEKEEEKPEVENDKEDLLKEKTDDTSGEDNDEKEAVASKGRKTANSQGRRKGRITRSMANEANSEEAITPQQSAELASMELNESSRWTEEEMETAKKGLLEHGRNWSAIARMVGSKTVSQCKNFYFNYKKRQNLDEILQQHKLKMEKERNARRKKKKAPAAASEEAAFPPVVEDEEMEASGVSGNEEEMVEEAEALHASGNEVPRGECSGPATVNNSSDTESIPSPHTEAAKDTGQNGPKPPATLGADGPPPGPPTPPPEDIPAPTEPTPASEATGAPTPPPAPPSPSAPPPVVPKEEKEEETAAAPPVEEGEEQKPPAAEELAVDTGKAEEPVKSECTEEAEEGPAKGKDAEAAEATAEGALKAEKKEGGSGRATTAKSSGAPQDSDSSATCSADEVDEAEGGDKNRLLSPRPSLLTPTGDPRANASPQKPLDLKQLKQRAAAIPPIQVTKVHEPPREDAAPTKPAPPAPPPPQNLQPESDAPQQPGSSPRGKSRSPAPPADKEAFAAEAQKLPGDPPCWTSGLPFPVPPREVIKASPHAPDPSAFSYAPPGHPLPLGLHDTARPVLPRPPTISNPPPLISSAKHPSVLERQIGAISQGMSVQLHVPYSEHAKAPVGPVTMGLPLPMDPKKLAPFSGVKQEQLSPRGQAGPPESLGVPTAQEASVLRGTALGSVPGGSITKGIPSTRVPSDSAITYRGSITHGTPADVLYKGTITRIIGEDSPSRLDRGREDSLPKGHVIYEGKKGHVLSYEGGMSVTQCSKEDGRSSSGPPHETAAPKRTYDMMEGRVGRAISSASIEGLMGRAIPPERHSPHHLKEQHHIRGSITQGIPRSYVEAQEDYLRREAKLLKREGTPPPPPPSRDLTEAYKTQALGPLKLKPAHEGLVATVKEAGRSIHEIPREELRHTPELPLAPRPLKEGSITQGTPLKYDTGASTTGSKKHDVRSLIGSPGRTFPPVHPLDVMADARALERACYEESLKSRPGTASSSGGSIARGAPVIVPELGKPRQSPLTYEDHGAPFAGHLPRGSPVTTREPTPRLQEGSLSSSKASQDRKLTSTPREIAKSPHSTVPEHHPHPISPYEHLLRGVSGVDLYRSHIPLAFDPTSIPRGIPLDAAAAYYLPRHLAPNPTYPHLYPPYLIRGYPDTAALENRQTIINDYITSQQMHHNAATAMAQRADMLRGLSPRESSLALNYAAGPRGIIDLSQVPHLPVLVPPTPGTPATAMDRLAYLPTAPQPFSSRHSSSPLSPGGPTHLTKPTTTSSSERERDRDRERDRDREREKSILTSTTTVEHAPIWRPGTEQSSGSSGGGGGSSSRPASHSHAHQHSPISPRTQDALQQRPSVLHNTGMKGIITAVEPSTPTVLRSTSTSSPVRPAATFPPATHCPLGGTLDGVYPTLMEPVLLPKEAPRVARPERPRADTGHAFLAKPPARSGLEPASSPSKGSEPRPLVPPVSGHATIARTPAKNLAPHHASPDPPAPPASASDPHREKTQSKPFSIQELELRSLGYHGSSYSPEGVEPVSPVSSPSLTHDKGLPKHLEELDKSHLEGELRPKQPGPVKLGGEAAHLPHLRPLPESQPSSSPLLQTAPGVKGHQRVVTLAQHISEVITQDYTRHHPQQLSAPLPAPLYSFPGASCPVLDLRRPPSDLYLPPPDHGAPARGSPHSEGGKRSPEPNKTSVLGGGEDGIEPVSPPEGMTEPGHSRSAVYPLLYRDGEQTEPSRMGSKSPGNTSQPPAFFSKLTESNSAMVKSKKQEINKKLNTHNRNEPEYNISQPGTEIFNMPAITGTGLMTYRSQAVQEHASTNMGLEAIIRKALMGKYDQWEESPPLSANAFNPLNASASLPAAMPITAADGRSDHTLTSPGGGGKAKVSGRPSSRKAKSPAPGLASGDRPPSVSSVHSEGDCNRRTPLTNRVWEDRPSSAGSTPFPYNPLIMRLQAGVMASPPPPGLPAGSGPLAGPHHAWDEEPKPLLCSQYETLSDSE
T1 sequence (P10721 26-976): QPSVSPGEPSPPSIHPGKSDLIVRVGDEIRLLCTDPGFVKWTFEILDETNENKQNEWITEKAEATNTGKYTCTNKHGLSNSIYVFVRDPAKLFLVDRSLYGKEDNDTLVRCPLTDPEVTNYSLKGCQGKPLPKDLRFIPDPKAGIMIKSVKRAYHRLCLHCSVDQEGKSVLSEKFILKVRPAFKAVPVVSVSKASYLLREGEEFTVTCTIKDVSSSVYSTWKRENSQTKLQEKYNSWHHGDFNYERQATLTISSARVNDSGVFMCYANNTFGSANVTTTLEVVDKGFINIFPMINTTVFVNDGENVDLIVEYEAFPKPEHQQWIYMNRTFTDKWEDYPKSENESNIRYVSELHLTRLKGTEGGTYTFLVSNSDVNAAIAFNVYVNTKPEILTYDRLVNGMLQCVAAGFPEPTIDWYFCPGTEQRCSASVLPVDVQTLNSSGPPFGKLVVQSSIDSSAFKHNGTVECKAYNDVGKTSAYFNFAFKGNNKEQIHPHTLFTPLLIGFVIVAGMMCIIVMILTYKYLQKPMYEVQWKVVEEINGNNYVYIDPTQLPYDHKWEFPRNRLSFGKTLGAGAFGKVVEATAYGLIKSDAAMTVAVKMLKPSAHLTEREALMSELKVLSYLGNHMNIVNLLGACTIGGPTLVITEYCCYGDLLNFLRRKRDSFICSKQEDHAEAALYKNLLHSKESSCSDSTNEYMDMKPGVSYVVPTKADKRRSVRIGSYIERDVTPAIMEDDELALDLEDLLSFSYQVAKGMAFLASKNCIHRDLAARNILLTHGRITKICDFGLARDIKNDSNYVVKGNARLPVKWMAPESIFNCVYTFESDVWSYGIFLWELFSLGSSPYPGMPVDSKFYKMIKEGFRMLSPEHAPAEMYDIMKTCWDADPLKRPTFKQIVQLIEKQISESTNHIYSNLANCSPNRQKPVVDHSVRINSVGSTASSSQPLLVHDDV

On to `Cc1[nH]c(/C=N/N=C2\C(=O)Nc3ccc(F)cc32)c(C)c1C(=O)NCCCCNc1ccc(C(=O)Nc2ccc(F)cc2N)cn1` [Example 20, N-(2-amino-4-fluorophenyl)-6-(4-(2-(((5-fluoro-2-oxoindolin-3-ylidene)-hydrazono)methyl)-3,5-dimethyl-1H-pyrrole-4-carboxamido)butylamino)nicotinamide], for which the “HDAC4/5 (MEF2 reporter assay) % Max Resp of CS055 at 3 μM” value in test [1] came out at 16.3%. This molecule also showed an IC50 in test [2] above 1000 nM. Further, in test [3], the GI50 was above 1000 nM. The “HDAC3 (GDF11 reporter assay) % Max Resp of CS055 at 3 μM” value in test [4] came to 4.1%.
